{
  "source": "PubChem BioAssay AID720587",
  "about": "(Broad Institute, 2013)",
  "note": "Activity calls are given as the source filed them.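 Rule for the calls: active = fitted curve reaches -35% activity change at a concentration below twice the top valid dose tested; inactive = the rest, including effects opposite to the expected direction.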",
  "data": [
    {"assay": "A673 Ewing sarcoma viability loss – cell-based, CellTiter-Glo luminescence, cherry-pick retest, confirmation (AID 720587)", "conditions": "A673 Ewing sarcoma viability, CellTiter-Glo ATP luminescence, 72 h; at 23.5 µM (top of the series)", "values": [
      {"molecule": "COc1ccccc1NC(=O)N1[C@@H]2CNC[C@H]1[C@@H]2c1ccc(-c2ccc(C#N)cc2)cc1", "activity change, negative = cytotoxicity": "13.3% (inactive)"}
    ]},
    {"assay": "A673 Ewing sarcoma viability loss – cell-based, CellTiter-Glo luminescence, cherry-pick retest, confirmation (AID 720587)", "conditions": "A673 Ewing sarcoma viability, CellTiter-Glo ATP luminescence, 72 h; at 26 µM (top of the series)", "values": [
      {"molecule": "CCOc1ccc(NC(=O)C(=O)N/N=C\\c2ccc(CNS(=O)(=O)c3ccccc3)o2)cc1", "activity change, negative = cytotoxicity": "-1.27% (inactive)"},
      {"molecule": "COc1ccc(/C=N/Nc2ccc(C(=O)O)cc2)cc1Br", "activity change, negative = cytotoxicity": "-2.31% (inactive)"},
      {"molecule": "CC(C)CC(NC(=O)c1cccs1)c1nnc(SCc2ccc(Cl)c(Cl)c2)n1C", "note": "(stereo unspecified)", "activity change, negative = cytotoxicity": "6.55% (inactive)"},
      {"molecule": "COc1ccc(/C=C2\\SC(=S)N(CCCC(=O)Nc3ccc(O)cc3)C2=O)cc1", "activity change, negative = cytotoxicity": "-14.2% (inactive)"},
      {"molecule": "COc1ccc2cc(C(N)=O)/c(=N\\NC(=O)c3ccccc3)oc2c1", "activity change, negative = cytotoxicity": "-2% (inactive)"},
      {"molecule": "CCOc1ccc(/C=C2\\CCc3ccccc3C2=O)cc1", "activity change, negative = cytotoxicity": "-1.55% (inactive)"},
      {"molecule": "CCOc1ccc(-c2cc(CCCC(=O)N3CCN(c4ccc(OC)cc4)CC3)no2)cc1", "activity change, negative = cytotoxicity": "9.05% (inactive)"},
      {"molecule": "COC(=O)c1c(C)[nH]c(/C=N/Nc2ccccc2)c1C", "activity change, negative = cytotoxicity": "5.78% (inactive)"},
      {"molecule": "CCNC(=O)c1cccc(S(=O)(=O)N2CCCCCC2)c1", "activity change, negative = cytotoxicity": "0.705% (inactive)"},
      {"molecule": "N#Cc1cccc(-c2ccc(C3[C@@H]4CN(C(=O)Cc5ccncc5)C[C@H]3N4)cc2)c1", "note": "(stereo partly specified)", "activity change, negative = cytotoxicity": "-0.912% (inactive)"},
      {"molecule": "COc1ccc2oc(C(=O)NCCc3ccccc3)c(C)c2c1", "activity change, negative = cytotoxicity": "-2.64% (inactive)"},
      {"molecule": "Cc1ccc(-c2ccc3c(c2)O[C@@H](CN(C)C(=O)Nc2ccc(F)cc2)[C@H](C)CN([C@@H](C)CO)S3(=O)=O)cc1", "activity change, negative = cytotoxicity": "0.801% (inactive)"},
      {"molecule": "Nc1ncn([C@@H]2O[C@H](CO)[C@@H](O)[C@H]2O)c(=O)n1", "activity change, negative = cytotoxicity": "-13.8% (inactive)"},
      {"molecule": "CCCN(C)C[C@H]1Oc2ncc(-c3ccccc3)cc2C(=O)N([C@@H](C)CO)C[C@H]1C", "activity change, negative = cytotoxicity": "-4.17% (inactive)"},
      {"molecule": "Cc1ccsc1C(=O)OCC(=O)NCCC1=CCCCC1", "activity change, negative = cytotoxicity": "2.01% (inactive)"},
      {"molecule": "COc1ccc2oc(-c3ccccc3)cc(=O)c2c1", "activity change, negative = cytotoxicity": "-12.3% (inactive)"},
      {"molecule": "CCOc1ccc(-c2noc(CCC(=O)O)n2)cc1", "activity change, negative = cytotoxicity": "6.68% (inactive)"},
      {"molecule": "C(=N\\Nc1ccc2ccccc2n1)/c1ccc2c(c1)OCO2", "activity change, negative = cytotoxicity": "-5.01% (inactive)"},
      {"molecule": "Nc1ccc(-c2cc3ccccc3c(=O)o2)cc1", "activity change, negative = cytotoxicity": "-2.08% (inactive)"},
      {"molecule": "COC(=O)COc1ccc(-c2nccc(-c3ccccn3)n2)cc1", "activity change, negative = cytotoxicity": "11.6% (inactive)"},
      {"molecule": "CCCNC(=O)N1[C@H](C#N)[C@H](c2ccc(C#Cc3ccc(F)cc3)cc2)[C@H]1CO", "activity change, negative = cytotoxicity": "-13.6% (inactive)"},
      {"molecule": "Nc1ccc(Oc2ccccc2-c2ccccc2)cc1", "activity change, negative = cytotoxicity": "-6.58% (inactive)"},
      {"molecule": "CCc1cnc(N2[C@H](C#N)[C@H](c3ccc(C#Cc4ccccc4F)cc3)[C@H]2CO)s1", "activity change, negative = cytotoxicity": "-10.8% (inactive)"},
      {"molecule": "O=C(NC1CCCC1)C(c1ccccc1)n1c(CSCCOc2ccccc2)nc2ccccc21", "note": "(stereo unspecified)", "activity change, negative = cytotoxicity": "-7.19% (inactive)"},
      {"molecule": "COCCCNc1ccn2nc(-c3ccccc3)cc2n1", "activity change, negative = cytotoxicity": "0.68% (inactive)"},
      {"molecule": "COc1ccc(S(=O)(=O)N=Nc2c(O)[nH]c3ccccc23)cc1", "activity change, negative = cytotoxicity": "8.74% (inactive)"},
      {"molecule": "C[C@H](CO)N1C[C@H](C)[C@H](CN(C)Cc2ccc(C(F)(F)F)cc2)Oc2c(NS(=O)(=O)c3ccc(Cl)cc3)cccc2C1=O", "activity change, negative = cytotoxicity": "4.37% (inactive)"},
      {"molecule": "CC(=O)c1ccc(NC(=O)c2noc3c2CCC3)cc1", "activity change, negative = cytotoxicity": "-3.66% (inactive)"},
      {"molecule": "C[C@@H]1CCCCO[C@@H](CN(C)C(=O)Cc2ccccc2)[C@@H](C)CN([C@@H](C)CO)C(=O)c2cc(NS(=O)(=O)c3ccc(F)cc3)ccc2O1", "activity change, negative = cytotoxicity": "7.89% (inactive)"},
      {"molecule": "CC(=O)Nc1ccc(OCC(=O)N(CC(C)C)C2CCS(=O)(=O)C2)cc1", "note": "(stereo unspecified)", "activity change, negative = cytotoxicity": "8.05% (inactive)"},
      {"molecule": "Cc1ccc(NC(=O)COC(=O)c2ccc3c(c2)OCO3)cc1S(=O)(=O)N1CCCCC1", "activity change, negative = cytotoxicity": "-4.65% (inactive)"},
      {"molecule": "Cc1cc(C)cc(OCC(=O)OCC(=O)Nc2cc(S(=O)(=O)N3CCOCC3)ccc2C)c1", "activity change, negative = cytotoxicity": "-2.43% (inactive)"},
      {"molecule": "O=C(NCc1ccccn1)c1ccc(CNS(=O)(=O)c2cccc(Cl)c2)cc1", "activity change, negative = cytotoxicity": "0.155% (inactive)"},
      {"molecule": "O=C(COC(=O)c1ccc[nH]c1=O)Nc1ccc(N2CCCCC2)cc1", "activity change, negative = cytotoxicity": "0.213% (inactive)"},
      {"molecule": "CC(C)CN(C(=O)CN1CCOCC1)c1c(N)n(CC(C)C)c(=O)[nH]c1=O", "activity change, negative = cytotoxicity": "-1.6% (inactive)"},
      {"molecule": "COc1ccc(C(=O)Nc2cccc(C(=O)N/N=C/c3ccc(OC)cc3OC)c2)cc1", "activity change, negative = cytotoxicity": "-1.59% (inactive)"},
      {"molecule": "Cc1cc(C(=O)NNC(=O)c2ccc(S(=O)(=O)N(C)C)cc2)c(C)o1", "activity change, negative = cytotoxicity": "1% (inactive)"},
      {"molecule": "CN(C)c1ccc(N=Nc2ccc(C(=O)O)cc2)cc1", "activity change, negative = cytotoxicity": "1.5% (inactive)"},
      {"molecule": "Cc1ccccc1N=Nc1c(O)n(C)c2ccccc12", "activity change, negative = cytotoxicity": "-1.37% (inactive)"},
      {"molecule": "O=C(O)c1ccc(N/N=C/c2c(F)cccc2Cl)cc1", "activity change, negative = cytotoxicity": "-4.19% (inactive)"},
      {"molecule": "COc1ccc(OC)c(-c2cc(C(F)(F)F)c3c(n2)sc2c(O)cc(=O)[nH]c23)c1", "activity change, negative = cytotoxicity": "-2.54% (inactive)"},
      {"molecule": "Cc1ccc(C(CC(=O)O)Nc2nc(N3CCOCC3)nc(N3CCOCC3)n2)cc1", "note": "(stereo unspecified)", "activity change, negative = cytotoxicity": "16.9% (inactive)"},
      {"molecule": "Cc1ccc2oc(/N=C(\\N)NC(=O)C(C)(C)C)nc2c1", "activity change, negative = cytotoxicity": "-3.45% (inactive)"},
      {"molecule": "CCCn1c(C)cc(C(=O)CN2C(=O)c3ccccc3S2(=O)=O)c1C", "activity change, negative = cytotoxicity": "11.3% (inactive)"},
      {"molecule": "O=C(O)c1ccc2cc(-c3ccccc3)[nH]c2c1", "activity change, negative = cytotoxicity": "-2.41% (inactive)"},
      {"molecule": "COC(=O)Cc1ccc(NC(=O)c2ccccc2Cl)cc1", "activity change, negative = cytotoxicity": "5% (inactive)"},
      {"molecule": "Cc1cc(Br)ccc1N=C1C(=O)Nc2ccccc21", "activity change, negative = cytotoxicity": "-19% (inactive)"},
      {"molecule": "COc1ccc(C=NNc2nc3ccccc3s2)cc1", "activity change, negative = cytotoxicity": "3.07% (inactive)"},
      {"molecule": "COc1ccc(Nc2ncnc3ccc(Br)cc23)c(OC)c1", "activity change, negative = cytotoxicity": "-5.17% (inactive)"},
      {"molecule": "CCc1c(C(=O)NN2C(=O)C3CCCCC3C2=O)csc1C", "note": "(stereo unspecified)", "activity change, negative = cytotoxicity": "-1.99% (inactive)"}
    ]}
  ]
}
